Reference: PubChem BioAssay (NCI)
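Each compound was tested at five concentrations against cells in 96-well plates for 48 hours. The concentration for 50% growth inhibition is given as GI50. The concentration for full growth arrest is given as TGI.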 *1 amine or outer side, *2 acyl side, *3 side chain or, on linkers, in order; H or OH if unused. Where a SMILES comes first, the peptide text is derived from it. [ ]: non-standard residue; d: D form. The star is where a group is joined. X11 = C/C=C/CC(C)C(O)[C@H](N[*:1])C(=O)[*:2]; Decanoyl = CCCCCCCCCC(=O)*; Leu(ol) = CC(C)C[C@H](N)CO; Aib = CC(C)(N)C(=O)O

Legend:
Assay in all cases: inhibition of tumour cell growth, NCI panel, 48 h
NCI-H23 lung = system: NCI-H23 lung
NCI-H460 lung = system: NCI-H460 lung
NCI-H522 lung = system: NCI-H522 lung
NCI/ADR-RES ovarian = system: NCI/ADR-RES ovarian
OVCAR-3 ovarian = system: OVCAR-3 ovarian
OVCAR-4 ovarian = system: OVCAR-4 ovarian
OVCAR-5 ovarian = system: OVCAR-5 ovarian
OVCAR-8 ovarian = system: OVCAR-8 ovarian
PC-3 prostate = system: PC-3 prostate
RPMI-8226 leukemia = system: RPMI-8226 leukemia
RXF 393 renal = system: RXF 393 renal
SF-268 CNS = system: SF-268 CNS
SF-295 CNS = system: SF-295 CNS
SF-539 CNS = system: SF-539 CNS
SK-MEL-2 melanoma = system: SK-MEL-2 melanoma
SK-MEL-28 melanoma = system: SK-MEL-28 melanoma
SK-MEL-5 melanoma = system: SK-MEL-5 melanoma
SK-OV-3 ovarian = system: SK-OV-3 ovarian
SN12C renal = system: SN12C renal
SNB-19 CNS = system: SNB-19 CNS
SNB-75 CNS = system: SNB-75 CNS
SR leukemia = system: SR leukemia
SW-620 colon = system: SW-620 colon
T-47D breast = system: T-47D breast
TK-10 renal = system: TK-10 renal
U251 CNS = system: U251 CNS
UACC-257 melanoma = system: UACC-257 melanoma
UACC-62 melanoma = system: UACC-62 melanoma
UO-31 renal = system: UO-31 renal

Q: Which results are given for `C/C=C/CC(C)C(O)[C@H](NC(=O)[C@@H]1CCCN1C(=O)C(C)(C)NC(=O)CCCCCCCCC)C(=O)NC(C)(C)C(=O)N[C@@H](CCC(N)=O)C(=O)N[C@H](CCC(N)=O)C(=O)NC(C)(C)C(=O)NC(C)(C)C(=O)N[C@@H](CCC(N)=O)C(=O)N[C@H](CC(C)C)C(=O)N[C@H](CO)CC(C)C` (stereo partly drawn) (Decanoyl-[Aib]P[X11][Aib]Q[dQ][Aib][Aib]Q[dL][Leu(ol)])?
A: GI50 (NCI-H23 lung): 2090 nM; TGI (NCI-H23 lung): 5910 nM; GI50 (NCI-H460 lung): 1530 nM; TGI (NCI-H460 lung): 3060 nM; GI50 (NCI-H522 lung): 1670 nM; TGI (NCI-H522 lung): 3400 nM; GI50 (NCI/ADR-RES ovarian): 2390 nM; TGI (NCI/ADR-RES ovarian): 6860 nM; GI50 (OVCAR-3 ovarian): 1910 nM; TGI (OVCAR-3 ovarian): 3950 nM; GI50 (OVCAR-4 ovarian): 2950 nM; GI50 (OVCAR-5 ovarian): 1870 nM; TGI (OVCAR-5 ovarian): 3960 nM; GI50 (OVCAR-8 ovarian): 1500 nM; TGI (OVCAR-8 ovarian): 3760 nM; GI50 (PC-3 prostate): 1140 nM; TGI (PC-3 prostate): 3180 nM; GI50 (RPMI-8226 leukemia): 1850 nM; TGI (RPMI-8226 leukemia): 4260 nM; GI50 (RXF 393 renal): 2140 nM; TGI (RXF 393 renal): 3980 nM; GI50 (SF-268 CNS): 1750 nM; TGI (SF-268 CNS): 3700 nM; GI50 (SF-295 CNS): 1390 nM; TGI (SF-295 CNS): 2900 nM; GI50 (SF-539 CNS): 1620 nM; TGI (SF-539 CNS): 3000 nM; GI50 (SK-MEL-2 melanoma): 1860 nM; TGI (SK-MEL-2 melanoma): 4220 nM; GI50 (SK-MEL-28 melanoma): 1690 nM; TGI (SK-MEL-28 melanoma): 3100 nM; GI50 (SK-MEL-5 melanoma): 1720 nM; TGI (SK-MEL-5 melanoma): 3160 nM; GI50 (SK-OV-3 ovarian): 3110 nM; TGI (SK-OV-3 ovarian): 13300 nM; GI50 (SN12C renal): 1930 nM; TGI (SN12C renal): 5350 nM; GI50 (SNB-19 CNS): 1550 nM; TGI (SNB-19 CNS): 3070 nM; GI50 (SNB-75 CNS): 1740 nM; TGI (SNB-75 CNS): 3220 nM; GI50 (SR leukemia): 1950 nM; TGI (SR leukemia): 8470 nM; GI50 (SW-620 colon): 2380 nM; TGI (SW-620 colon): 7110 nM; GI50 (T-47D breast): 2090 nM; TGI (T-47D breast): 5670 nM; GI50 (TK-10 renal): 2270 nM; TGI (TK-10 renal): 5570 nM; GI50 (U251 CNS): 1460 nM; TGI (U251 CNS): 2970 nM; GI50 (UACC-257 melanoma): 1540 nM; TGI (UACC-257 melanoma): 3090 nM; GI50 (UACC-62 melanoma): 1610 nM; TGI (UACC-62 melanoma): 3190 nM; GI50 (UO-31 renal): 1590 nM; TGI (UO-31 renal): 4220 nM
